# Results as given in US9676715B2, “Bis-indolic derivatives, a process for preparing the same and their uses as a drug” (UNIVERSITE JOSEPH FOURIER, priority 2011, dated 2017).
# Key:
# [1] = test system: HCT116 (human colon tumor); experiment: In vitro cytotoxicity; format: cell-based; settings: read-out: % of cellular growth inhibition; for inhibition at 10 µM: HCT-116, 10^−5 M; for inhibition at 1 µM: HCT-116, 10^−6 M
# Procedure: (§1) In vitro cytotoxicity was assayed on three cell lines—KB (human mouth carcinoma), MCR5 (human lung fibroblast) and HCT116 (human colon tumor). Results are presented in table IV as % of cellular growth inhibition in presence of 10^−5 M and 10^−6 M of the tested bis-indolic derivatives.
# [2] = test system: KB (human mouth carcinoma); experiment: In vitro cytotoxicity; format: cell-based; settings: read-out: % of cellular growth inhibition; for inhibition at 10 µM: 10^−5 M; for inhibition at 1 µM: 10^−6 M
# Procedure: as §1
# [3] = test system: MRC5 (human lung fibroblast); experiment: In vitro cytotoxicity; format: cell-based; settings: read-out: % of cellular growth inhibition; for inhibition at 10 µM: 10^−5 M; for inhibition at 1 µM: 10^−6 M
# Procedure: as §1
# [4] = test system: S. agalactiae (group B) ATCC 12400; experiment: MIC, microdilution method (9.1); format: cell-based, Streptococcus agalactiae; settings: Streptococcus agalactiae, ATCC12400, 18 h, read-out: MIC
# Procedure: (§2) The microdilution method recommended by the Clinical and Laboratory Standard Institute [M07-A8, Vol. 29, No. 2] was used. The activity of indolic compounds was tested against 29 bacterial strains belonging to 17 different species and 12 different genera (Staphylococcus, Streptococcus, Enterococcus, Listeria, Bacillus, Haemophilus, Escherichia, Klebsiella, Enterobacter, Serratia, Pseudomonas, and Acinetobacter). Bacterial inocula were prepared in Mueller Hinton broth (MH2, bioMérieux, Marcy L'Etoile, France), supplemented with 10% sheep blood for fastidious species (i.e., Streptococcus pneumoniae and Haemophilus influenzae). They were dispensed in 96 well microtiter plates (5×10^5 CFU/ml of final inoculum). Indolic compounds were added to the wells as to obtain two-fold serial concentrations (0.50-128 mg/L of final concentrations). Plates were incubated at 37° C. in ambient air, or at 37° C. in 5% CO2 enriched atmosphere for fastidious species. […] Drug-free cultures served as growth controls. Cultures receiving gentamicin, ciprofloxacin or cefotaxime served as positive controls.
# [5] = test system: S. pyogenes (group A) CIP 104226; experiment: MIC, microdilution method (9.1); format: cell-based, Streptococcus pyogenes; settings: Streptococcus pyogenes, CIP104226, 18 h, read-out: MIC
# Procedure: as §2
# [6] = test system: S. aureus ATCC 29213; experiment: MIC, microdilution method (9.1); format: cell-based, Staphylococcus aureus; settings: Staphylococcus aureus, ATCC29213, read after 18 h, read-out: MIC
# Procedure: as §2
# [7] = test system: S. aureus SA-1199B; experiment: MIC, microdilution method (9.1); format: cell-based, Staphylococcus aureus; settings: Staphylococcus aureus, SA1199B, 18 h
# Procedure: as §2
# [8] = test system: S. aureus ATCC 25923; experiment: MIC, microdilution method (9.1); format: cell-based, Staphylococcus aureus; settings: Staphylococcus aureus, ATCC25923, read after 18 h, read-out: MIC
# Procedure: as §2
# [9] = test system: S. aureus CIP 65.25 (MRSA); experiment: MIC, microdilution method (9.1); format: cell-based, Staphylococcus aureus; settings: Staphylococcus aureus, read after 18 h, read-out: MIC
# Procedure: as §2
# [10] = test system: S. aureus ATCC 6538; experiment: MIC, microdilution method (9.1); format: cell-based, Staphylococcus aureus; settings: Staphylococcus aureus, ATCC6538, read after 18 h, read-out: MIC
# Procedure: as §2
# [11] = test system: S. aureus CIP 65.6; experiment: MIC, microdilution method (9.1); format: cell-based, Staphylococcus aureus; settings: Staphylococcus aureus, CIP65, read after 18 h, read-out: MIC
# Procedure: as §2
# [12] = test system: S. aureus ATCC 106414 (VISA); experiment: MIC, microdilution method (9.1); format: cell-based, Staphylococcus aureus; settings: Staphylococcus aureus, read after 18 h, read-out: MIC
# Procedure: as §2
# [13] = test system: S. aureus CIP 103428; experiment: MIC, microdilution method (9.1); format: cell-based, Staphylococcus aureus; settings: Staphylococcus aureus, CIP103428, read after 18 h, read-out: MIC
# Procedure: as §2
# [14] = test system: S. aureus ATCC 33592 (MRSA); experiment: MIC, microdilution method (9.1); format: cell-based, Staphylococcus aureus; settings: Staphylococcus aureus, read after 18 h, read-out: MIC
# Procedure: as §2
# [15] = test system: S. aureus ATCC 9144; experiment: MIC, microdilution method (9.1); format: cell-based, Staphylococcus aureus; settings: Staphylococcus aureus, ATCC9144, read after 18 h, read-out: MIC
# Procedure: as §2
# [16] = test system: S. pneumoniae ATCC 6303; experiment: MIC, microdilution method (9.1); format: cell-based, Streptococcus pneumoniae; settings: Streptococcus pneumoniae, ATCC6303, 10% sheep blood, 5% CO2, 18 h, read-out: MIC
# Procedure: as §2
# [17] = test system: E. faecium CIP 54.32; experiment: MIC, microdilution method (9.1); format: cell-based, Enterococcus faecium; settings: Enterococcus faecium, CIP54, 18 h, read-out: MIC
# Procedure: as §2
# [18] = test system: HCT116 (human colon tumor); experiment: In vitro cytotoxicity; format: cell-based; settings: HCT-116, HCT116, from 100 μM to 0.005 μM in DMSO, duplicate
# [19] = test system: E. faecalis ATCC 29212; experiment: MIC, microdilution method (9.1); format: cell-based, Enterococcus faecalis; settings: Enterococcus faecalis, ATCC29212, 18 h, read-out: MIC
# Procedure: as §2
# [20] = test system: S. mitis CIP 103335; experiment: MIC, microdilution method (9.1); format: cell-based, Streptococcus mitis; settings: Streptococcus mitis, CIP103335, 18 h, read-out: MIC
# Procedure: as §2
# [21] = test system: Haemophilus influenzae ATCC 49766; experiment: MIC, microdilution method (9.1); format: cell-based; settings: ATCC49766; Haemophilus influenzae ATCC 49766; 10% sheep blood, 5% CO2; 18 h; read-out: MIC
# Procedure: as §2
# [22] = test system: Serratia marcescens CIP 103551; experiment: MIC, microdilution method (9.1); format: cell-based; settings: CIP103551, 18 h
# Procedure: as §2
# [23] = test system: Escherichia coli ATCC 25922; experiment: MIC, microdilution method (9.1); format: cell-based; settings: ATCC25922, 18 h
# Procedure: as §2
# [24] = test system: Listeria innocua CIP 80.11; experiment: MIC, microdilution method (9.1); format: cell-based; settings: CIP80, 18 h, read-out: MIC
# Procedure: as §2
# [25] = test system: Bacillus subtilis CIP 5262; experiment: MIC, microdilution method (9.1); format: cell-based; settings: CIP5262, 18 h, read-out: MIC
# Procedure: as §2
# [26] = test system: Enterobacter cloacae ATCC13047; experiment: MIC, microdilution method (9.1); format: cell-based; settings: 18 h
# Procedure: as §2
# [27] = test system: Klebsiella pneumoniae API ATCC 35657; experiment: MIC, microdilution method (9.1); format: cell-based; settings: ATCC35657, 18 h, read-out: MIC
# Procedure: as §2
# [28] = test system: S. pneumoniae ATCC 49619; experiment: MIC, microdilution method (9.1); format: cell-based; settings: Streptococcus pneumoniae, ATCC49619, 10% sheep blood, 5% CO2, 18 h
# Procedure: as §2
# [29] = test system: Acinetobacter baumanii ATCC 19606; experiment: MIC, microdilution method (9.1); format: cell-based; settings: Acinetobacter baumannii, ATCC19606, 18 h, read-out: MIC
# Procedure: as §2
# [30] = test system: Pseudomonas aeruginosa CIP 5933; experiment: MIC, microdilution method (9.1); format: cell-based; settings: CIP5933, 18 h, read-out: MIC
# Procedure: as §2
# [31] = test system: S. epidermidis CIP 81.55; experiment: MIC, microdilution method (9.1); format: cell-based, Staphylococcus epidermidis; settings: Staphylococcus epidermidis, CIP81, read after 18 h, read-out: MIC
# Procedure: as §2
# [32] = test system: S. epidermidis CIP 103627; experiment: MIC, microdilution method (9.1); format: cell-based, Staphylococcus epidermidis; settings: Staphylococcus epidermidis, CIP103627, read after 18 h, read-out: MIC
# Procedure: as §2
# [33] = test system: S. epidermidis ATCC 12228; experiment: MIC, microdilution method (9.1); format: cell-based, Staphylococcus epidermidis; settings: Staphylococcus epidermidis, ATCC12228, read after 18 h, read-out: MIC
# Procedure: as §2
SMILES,inhibition at 10 µM [1] [%],inhibition at 1 µM [1] [%],inhibition at 10 µM [2] [%],inhibition at 1 µM [2] [%],inhibition at 10 µM [3] [%],inhibition at 1 µM [3] [%],MIC [4] [µg/mL],MIC [6] [µg/mL],MIC [7] [µg/mL],MIC [8] [µg/mL],MIC [9] [µg/mL],MIC [10] [µg/mL],MIC [11] [µg/mL],MIC [12] [µg/mL],MIC [13] [µg/mL],MIC [14] [µg/mL],MIC [15] [µg/mL],MIC [31] [µg/mL],MIC [32] [µg/mL],MIC [33] [µg/mL],other results
"CC(C)(C)OC(=O)NCC(NC(=O)c1c[nH]c2cc(Br)ccc12)c1c[nH]c2cc(Br)ccc12 (stereo not drawn) [Compound 3i, tert-Butyl (2-(6-bromo-1H-indol-3-yl)-2-(6-bromo-1H-indolyl-3-carboxamido)ethyl)carbamate]",91 ± 1,4,100 ± 1,3,91 ± 7,10,32,2,1,2,1,2,1,1,1,1,2,2,2,2,MIC [5]: 32 µg/mL; MIC [16]: 32 µg/mL; MIC [17]: 64 µg/mL; IC50 ([18]; first value): 1900 nM; IC50 ([18]; second value): 2100 nM; MIC [19]: > 128 µg/mL; MIC [20]: 64 µg/mL; MIC [21]: 16 µg/mL; MIC [22]: > 128 µg/mL; MIC [23]: > 128 µg/mL; MIC [24]: 32 µg/mL; MIC [25]: 64 µg/mL; MIC [26]: > 128 µg/mL; MIC [27]: > 128 µg/mL; MIC [28]: 32 µg/mL; MIC [29]: > 128 µg/mL; MIC [30]: > 128 µg/mL
"CC(C)(C)OC(=O)NCC(NC(=O)c1c[nH]c2ccc(Cl)cc12)c1c[nH]c2ccc(Cl)cc12 (stereo not drawn) [Compound 6a, tert-Butyl 2-(5-chloro-1H-indol-3-yl)-2-(5-chloro-1H-indole-3-carboxamido)ethylcarbamate]",80 ± 9,0,87 ± 6,4,82 ± 4,0,64,≤ 2,4,4,4,4,4,4,4,4,4,4,4,4,MIC [5]: 64 µg/mL; MIC [16]: 32 µg/mL; MIC [17]: > 128 µg/mL; IC50 ([18]; first value): 4350 nM; IC50 ([18]; second value): 3790 nM; MIC [19]: > 128 µg/mL; MIC [20]: 64 µg/mL; MIC [21]: > 128 µg/mL; MIC [22]: > 128 µg/mL; MIC [23]: > 128 µg/mL; MIC [24]: > 128 µg/mL; MIC [25]: 64 µg/mL; MIC [26]: > 128 µg/mL; MIC [27]: > 128 µg/mL; MIC [28]: 64 µg/mL; MIC [29]: > 128 µg/mL; MIC [30]: > 128 µg/mL
"COC(=O)C(NC(=O)c1c[nH]c2ccc(Br)cc12)c1c[nH]c2ccc(Br)cc12 (stereo not drawn) [Compound 11, Methyl 2-(5-bromo-1H-indol-3-yl)-2-(5-bromo-1H-indole-3-carboxamido)acetate]",51 ± 5,0,51 ± 1,0,28 ± 9,0,,4,4,4,4,4,4,4,4,4,4,4,4,4,melting point: 126 °C
"O=C(NC(CO)c1c[nH]c2ccc(Br)cc12)c1c[nH]c2ccc(Br)cc12 (stereo not drawn) [Compound 13, 5-Bromo-N-(1-(5-bromo-1H-indol-3-yl)-2-hydroxyethyl)-1H-indole-3-carboxamide]",12 ± 5,0,1 ± 4,0,6 ± 1,0,,4,8,4,4,4,4,4,4,4,4,4,4,4,melting point: 155 °C
